Experimental data taken from PubChem BioAssay (NCI).
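Abbreviation: GI50, concentration required for 50% inhibition of growth. TGI is the concentration that stops growth completely.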

Key:
Assay in all cases: NCI tumour cell line growth inhibition, 384-well format
786-0 renal = test system: 786-0 renal
A498 renal = test system: A498 renal
A549 NSCLC = test system: A549 NSCLC
HCT-15 colon = test system: HCT-15 colon
IGROV1 ovarian = test system: IGROV1 ovarian
LOX IMVI melanoma = test system: LOX IMVI melanoma
MDA-MB-231 breast = test system: MDA-MB-231 breast
NCI-H460 NSCLC = test system: NCI-H460 NSCLC
SF-539 CNS = test system: SF-539 CNS
SK-MEL-5 melanoma = test system: SK-MEL-5 melanoma
SR leukemia = test system: SR leukemia
T-47D breast = test system: T-47D breast
UACC-62 melanoma = test system: UACC-62 melanoma

**Q.** What does the source list for `Cc1ccc2c(N)c(C(=O)N[C@H]3CCc4cc(N5CC6CCC(C5)N6)ccc4C3)sc2n1`?
**A.** GI50 (786-0 renal): 229 nM; TGI (786-0 renal): 997 nM; GI50 (A498 renal): 164 nM; TGI (A498 renal): 892 nM; GI50 (A549 NSCLC): 222 nM; TGI (A549 NSCLC): 1060 nM; GI50 (HCT-15 colon): 260 nM; TGI (HCT-15 colon): 1030 nM; GI50 (IGROV1 ovarian): 300 nM; TGI (IGROV1 ovarian): 1120 nM; GI50 (LOX IMVI melanoma): 88.7 nM; TGI (LOX IMVI melanoma): 268 nM; GI50 (MDA-MB-231 breast): 219 nM; TGI (MDA-MB-231 breast): 972 nM; GI50 (NCI-H460 NSCLC): 66.1 nM; TGI (NCI-H460 NSCLC): 548 nM; GI50 (SF-539 CNS): 207 nM; TGI (SF-539 CNS): 663 nM; GI50 (SK-MEL-5 melanoma): 111 nM; TGI (SK-MEL-5 melanoma): 436 nM; GI50 (SR leukemia): 161 nM; TGI (SR leukemia): 298 nM; GI50 (T-47D breast): 269 nM; TGI (T-47D breast): 992 nM; GI50 (UACC-62 melanoma): 241 nM; TGI (UACC-62 melanoma): 811 nM
